How the values were obtained:
PI3-Kα = PI3-Kα (Mus musculus (Mouse), UniProt P42337); assay: PI3-Kα Biochemical Assay (fluorescence polarization kinase assay)
Method in brief: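 Co-expressed mouse p110/p85 PI3-Kα (4 nM stock) acting on PI(4,5)P2 (60 μM stock) with ATP/MgCl2 in HEPES pH 7.4 buffer, 35 min at room temperature, then EDTA stop. PI(3,4,5)P3 product detected by displacement of TAMRA-PIP3 from Grip1 PH domain (FP, 535/580 nm). IC50 from sigmoidal fit of % inhibition.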

[1] = system: PI3-K in BT20 cells (phosphorylation of AKT at serine 473); assay: PI3-Kα Cellular Assay (AKT Ser473 phosphorylation ELISA in BT20 cells); format: cell-based, human; settings: Homo sapiens, BT-20, pAKT Ser473 ELISA, 1 hour incubation
Method in brief: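 Cells seeded overnight in 0.5% FBS, then exposed 1 h at 37 °C to an 11-concentration 1:3 dilution series, in duplicate.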

Chain of PI3-Kα (P42337 whole entry, the tested form may be a part): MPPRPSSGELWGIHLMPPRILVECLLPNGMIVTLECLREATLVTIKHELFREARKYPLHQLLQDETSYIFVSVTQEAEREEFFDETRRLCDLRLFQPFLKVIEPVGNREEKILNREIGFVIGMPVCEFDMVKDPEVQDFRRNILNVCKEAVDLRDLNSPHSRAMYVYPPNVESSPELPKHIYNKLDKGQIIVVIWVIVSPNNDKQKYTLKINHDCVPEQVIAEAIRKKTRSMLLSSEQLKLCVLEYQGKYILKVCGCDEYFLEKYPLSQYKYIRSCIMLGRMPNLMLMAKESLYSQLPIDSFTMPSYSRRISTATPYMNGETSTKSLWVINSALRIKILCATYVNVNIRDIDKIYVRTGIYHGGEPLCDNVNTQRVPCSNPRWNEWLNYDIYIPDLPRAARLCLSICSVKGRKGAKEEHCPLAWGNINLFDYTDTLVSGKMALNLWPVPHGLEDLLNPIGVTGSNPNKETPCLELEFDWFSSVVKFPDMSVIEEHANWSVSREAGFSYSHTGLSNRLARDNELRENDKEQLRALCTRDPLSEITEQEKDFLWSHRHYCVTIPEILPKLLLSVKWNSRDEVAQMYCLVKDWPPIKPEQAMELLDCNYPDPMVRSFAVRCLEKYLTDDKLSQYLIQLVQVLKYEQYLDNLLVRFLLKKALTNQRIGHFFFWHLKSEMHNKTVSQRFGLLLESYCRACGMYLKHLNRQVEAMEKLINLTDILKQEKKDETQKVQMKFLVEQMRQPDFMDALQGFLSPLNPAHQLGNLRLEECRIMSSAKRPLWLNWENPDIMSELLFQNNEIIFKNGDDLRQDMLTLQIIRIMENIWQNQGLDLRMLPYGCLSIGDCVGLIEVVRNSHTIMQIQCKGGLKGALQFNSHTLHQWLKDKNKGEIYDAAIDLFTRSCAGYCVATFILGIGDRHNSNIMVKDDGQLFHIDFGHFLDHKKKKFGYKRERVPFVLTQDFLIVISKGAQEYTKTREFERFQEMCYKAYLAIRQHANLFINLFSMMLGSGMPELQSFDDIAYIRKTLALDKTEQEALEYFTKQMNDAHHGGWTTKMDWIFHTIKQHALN
Chain of PI3-Kα (P26450 whole entry partner, the tested form may be a part): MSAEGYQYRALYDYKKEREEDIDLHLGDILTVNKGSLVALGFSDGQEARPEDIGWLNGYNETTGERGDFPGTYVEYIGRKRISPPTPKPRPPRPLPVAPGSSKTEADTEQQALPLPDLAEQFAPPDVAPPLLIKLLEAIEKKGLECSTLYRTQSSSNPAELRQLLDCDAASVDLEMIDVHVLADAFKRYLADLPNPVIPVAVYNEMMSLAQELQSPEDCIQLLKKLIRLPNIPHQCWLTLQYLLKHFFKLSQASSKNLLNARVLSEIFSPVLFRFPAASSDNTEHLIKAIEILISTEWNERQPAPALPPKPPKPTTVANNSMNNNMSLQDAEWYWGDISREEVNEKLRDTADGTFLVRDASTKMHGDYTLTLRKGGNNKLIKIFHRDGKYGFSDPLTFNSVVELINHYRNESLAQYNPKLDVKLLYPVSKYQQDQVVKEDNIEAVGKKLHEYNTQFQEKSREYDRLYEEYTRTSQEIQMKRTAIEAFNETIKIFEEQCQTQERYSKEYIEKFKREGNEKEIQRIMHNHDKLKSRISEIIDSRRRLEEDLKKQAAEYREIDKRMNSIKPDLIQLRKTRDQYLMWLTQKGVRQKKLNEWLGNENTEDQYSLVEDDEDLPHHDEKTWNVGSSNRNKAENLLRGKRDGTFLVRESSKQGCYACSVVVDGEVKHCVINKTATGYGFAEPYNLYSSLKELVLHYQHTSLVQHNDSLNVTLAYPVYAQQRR

SMILES	IC50 (PI3-Kα) [nM]	IC50 [1] [nM]
Cc1nc(N)nc2c1cc(-c1cn[nH]c1)c(=O)n2[C@H]1CC[C@H](O)CC1 [Compound 156, 2-amino-8-(trans-4-hydroxycyclohexyl)-4-methyl-6-(1H-pyrazol-4-yl)pyrido(2,3-d]pyrimidin-7(8H)-one]	6.7	169
Cc1nc(N)nc2c1cc(-c1cnc3[nH]ccc3c1)c(=O)n2[C@H]1CC[C@H](O)CC1 [Compound 158, 2-amino-8-(trans-4-hydroxycyclohexyl)-4-methyl-6-(1H-pyrrolo[2,3-b]pyridin-5-yl)pyrido[2,3-d]pyrimidin-7(8H)-one]	1.3	31.9
COc1ccc(-c2cc3c(C)nc(N)nc3n([C@@H]3CC[C@@H](O)C3)c2=O)cn1 [Compound 159, 2-amino-8-[(1R,3R)-3-hydroxycyclopentyl]-6-(6-methoxypyridin-3-yl)-4-methylpyrido[2,3-d]pyrimidin-7(8H)-one]	4.6	87.6
Cc1nc(N)nc2c1cc(-c1cnc3[nH]ccc3c1)c(=O)n2[C@@H]1CC[C@H](O)C1 [Compound 163, 2-amino-8-[(1R,3S)-3-hydroxycyclopentyl]-4-methyl-6-(1H-pyrrolo[2,3-b]pyridin-5-yl)pyrido[2,3-d]pyrimidin-7(8H)-one]	1.2	20.4
Cc1nc(N)nc2c1cc(-c1cnc3[nH]ccc3c1)c(=O)n2[C@@H]1CC[C@@H](O)C1 [Compound 165, 2-amino-8-[(1R,3R)-3-hydroxycyclopentyl]-4-methyl-6-(1H-pyrrolo[2,3-b]pyridin-5-yl)pyrido[2,3-d]pyrimidin-7(8H)-one]	1.2	55.8
Cc1nc(N)nc2c1cc(Br)c(=O)n2[C@H]1CC[C@@H](O)CC1 [Compound 168, 2-amino-6-bromo-8-(cis-4-hydroxycyclohexyl)-4-methylpyrido[2,3-d]pyrimidin-7(8H)-one]	130	228
Cc1nc(N)nc2c1cc(-c1ccc(F)cc1)c(=O)n2CC(C)(C)O [Compound 170, 2-amino-6-(4-fluorophenyl)-8-(2-hydroxy-2-methylpropyl)-4-methylpyrido[2,3-d]pyrimidin-7(8H)-one]	3400	10000
Cc1nc(N)nc2c1cc(-c1cnc3ccccc3c1)c(=O)n2CC(C)(C)O [Compound 173, 2-amino-8-(2-hydroxy-2-methylpropyl)-4-methyl-6-quinolin-3-ylpyrido[2,3-d]pyrimidin-7(8H)-one]	270	322
COc1ccc(-c2cc3c(C)nc(N)nc3n(C3CCC(=O)CC3)c2=O)cn1 [Compound 175, 2-amino-6-(6-methoxypyridin-3-yl)-4-methyl-8-(4-oxocyclohexyl)pyrido[2,3-d]pyrimidin-7(8H)-one]	4.3	19.3
CO[C@H]1CC[C@H](n2c(=O)c(Br)cc3c(C)nc(N)nc32)CC1 [Compound 178]	31	64
COc1ccc(-c2cc3c(C)nc(N)nc3n([C@H]3CC[C@H](OC)CC3)c2=O)cn1 [Compound 179, 2-Amino-8-(trans-4-methoxycyclohexyl)-6-(6-methoxypyridin-3-yl)-4-methylpyrido[2,3-d]pyrimidin-7(8H)-one]	3.9	7.37
CO[C@H]1CC[C@H](n2c(=O)c(-c3ccc(N(C)C)nc3)cc3c(C)nc(N)nc32)CC1 [Compound 182, 2-amino-6-[6-(dimethylamino)pyridin-3-yl]-8-(trans-4-methoxycyclohexyl)-4-methylpyrido[2,3-d]pyrimidin-7(8H)-one]	6.2	10.1
Cc1nc(N)nc2c1cc(Br)c(=O)n2C1CCC(=O)CC1 [Compound 184, 2-amino-6-bromo-4-methyl-8-(4-oxocyclohexyl)pyrido[2,3-d]pyrimidin-7(8H)-one]	110	211
Cc1nc(N)nc2c1cc(-c1cn[nH]c1)c(=O)n2C1CCC(C)(O)CC1 (stereo not shown) [Compound 185, 2-amino-8-(4-hydroxy-4-methylcyclohexyl)-4-methyl-6-(1H-pyrazol-4-yl)pyrido[2,3-d]pyrimidin-7(8H)-one]	18	15.2
